In general, IC50 refers to the concentration that gives 50% inhibition.

Consider eleven molecules from patent US11292781B2, “Pyrimidine tricyclic enone derivatives for inhibition of ROR-gamma and other uses” (REATA PHARMACEUTICALS, INC., priority 2016, dated 2022).

Assay [1] has as its system Human RAR-related Orphan Receptor Gamma (RORγ). Description: RORγ assay (GAL4-RORγ hybrid luciferase reporter, Indigo Biosciences). The following applies: GAL4-RORγ reporter cells, 23 hours. Format: cell-based. The source says: B. RORγ Assay and Cell Viability
The RORγ assay system was purchased from Indigo Biosciences. This nuclear receptor assay utilizes a human cell line that has been engineered to express a hybrid form of the Human RAR-related Orphan Receptor Gamma (RORγ) at high levels. The N-terminal DNA binding domain (DBD) of the native RORγ receptor was substituted with the yeast GAL4-DBD to generate the GAL4-RORγ hybrid nuclear receptor. The reporter cell line is transfected with a plasmid that encodes the beetle luciferase gene under the control of the GAL4 upstream activating sequence (UAS). GAL4 binds to the UAS and increases transcription of downstream target genes. […] To assess the RORγ inverse-agonist activity of the test compounds, reporter cells were plated in white 96-well plates in triplicate and were treated with DMSO (vehicle) or test compound (concentration ranges of 0.4-200 nM or 2-1000 nM) at 37° C. with 5% CO2 in a humidified atmosphere for 23 hours. After this incubation, luciferin was added to the wells and luciferase activity was determined by measuring the luminescence signal using a BMG Pherastar microplate reader. Viability was determined using the Live Cell Multiplex Assay (Indigo Biosciences). Values from test compound samples were normalized to those from DMSO-treated samples. Data were analyzed using GraphPad Prism version 6.00 for Windows (GraphPad Software, La Jolla Calif. USA). A non-linear regression analysis with log (inhibitor) vs. normalized response using a variable slope was applied to fit the data and determine the IC50 values for inhibition of RORγ and cell viability.
For orientation: A reporter such as luciferase makes a cellular process visible.

Assay [2] deals with Nrf2 transcription factor (GST ARE luciferase reporter in AREc32 cells). Description: AREc32 luciferase reporter assay. Format: cell-based, human. The following applies: EC2×: concentration required to increase GST ARE luciferase reporter activity by 2-fold, 19 hours. An outline of the steps: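 AREc32 cells (MCF-7 carrying luciferase under eight rat GSTA2 ARE copies) treated with compound; luciferase measured by ONE-Glo luminescence. Signal normalised to DMSO wells as fold-induction, fitted by variable-slope log(agonist)-response regression, with EC2× interpolated from the curve.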

The subject of assay [3] is IL-17A levels in primary human CD4+ T cells differentiated into Th17 cells. Description: IL-17 release from differentiated primary human T-cells (IL-17A HTRF). Format: cell-based. The conditions noted are these: primary human CD4+ T cells, Th17 differentiation, 46-hour incubation; read-out: hIL17 IC50. Put shortly: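 Cryopreserved primary human CD4+ T cells were activated with CD3/CD28 beads (1:2.5) and driven to Th17 with TGF-β 5, IL-6 20, IL-23 20, IL-10 10 ng/mL in ≤0.1% DMSO for 46 h at 37° C, in triplicate. Supernatant IL-17A was measured by HTRF and viability by CyQuant normalized to DMSO. IC50s came from variable-slope nonlinear regression.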
(TR-FRET usually uses a lanthanide donor and a delayed reading to cut background.)

`COc1nc(CCNC=O)nc2c1CC[C@@H]1[C@@H](C)C(=O)C(C#N)=C[C@@]21C` [T11] showed an IC50 in assay [1] of more than 2000 nM. Besides, the “HRF2 ARE 2×” value in assay [2] is reported as 2438 nM.
Turning to `C[C@H]1C(=O)C(C#N)=C[C@@]2(C)c3nc(-c4ccncc4)nc(O)c3CC[C@H]12` [T17], in assay [1], the 50% inhibitory concentration (IC50) is more than 2000 nM. In assay [2], the “HRF2 ARE 2×” value is 839 nM.
In the case of `C[C@H]1C(=O)C(C#N)=C[C@@]2(C)c3nc(-c4ccnc5ccccc45)nc(NS(C)(=O)=O)c3CC[C@H]12` [T98], the IC50 was more than 2000 nM in assay [1] and more than 1000 nM in assay [3]. Further, the “HRF2 ARE 2×” value in assay [2] was more than 2000 nM.
The molecule `C[C@H]1C(=O)C(C#N)=C[C@@]2(C)c3nc(-c4ccnc(CCC(=O)O)c4)nc(-c4ccccc4F)c3CC[C@H]12` [T150] registered a 50% inhibitory concentration (IC50) in assay [1] of more than 2000 nM. Moreover, in assay [2], the “HRF2 ARE 2×” value is given as more than 2000 nM.
`C[C@H]1C(=O)C(C#N)=C[C@@]2(C)c3nc(-c4ccnc5ccccc45)nc(-c4ccccc4F)c3CC[C@@H]12` [T176]: the 50% inhibitory concentration (IC50) in assay [3] came out at 455 nM. Moreover, the “HRF2 ARE 2×” value in assay [2] is reported as more than 2000 nM.
For `CC(=O)NCCc1cc(-c2nc(-c3ccccc3F)c3c(n2)[C@]2(C)C=C(C#N)C(=O)[C@H](C)[C@H]2CC3)ccn1` [T178], in that order: 130 nM and 444 nM.
On to `C[C@H]1C(=O)C(C#N)=C[C@@]2(C)c3nc(-c4ccncc4-c4ccccc4)nc(-c4ccccc4F)c3CC[C@H]12` [T179], for which the concentration for half-maximal inhibition (IC50) in assay [3] came to 27 nM. Moreover, in assay [2], the “HRF2 ARE 2×” value is listed as 649 nM.
Take `C[C@H]1C(=O)C(C#N)=C[C@@]2(C)c3nc(-c4ccncc4C4CC4)nc(-c4ccccc4F)c3CC[C@H]12` [T180]: the IC50 in assay [3] worked out at 21 nM. The “HRF2 ARE 2×” value in assay [2] is 494 nM.
Regarding `C[C@H]1C(=O)C(C#N)=C[C@@]2(C)c3nc(-c4cccc5ncccc45)nc(-c4ccccc4)c3CCC[C@H]12` [T183], the concentration for half-maximal inhibition (IC50) in assay [3] is 70 nM. Also, the “HRF2 ARE 2×” value in assay [2] was 1868 nM.
Consider `Cc1cc(-c2nc(-c3ccc(F)cc3)c3c(n2)[C@]2(C)CC(C(N)=O)C(=O)[C@H](C)[C@H]2CC3)ccn1` (some centres unmarked) [T185], for which the IC50 in assay [1] was more than 2000 nM. Also, the “HRF2 ARE 2×” value in assay [2] is listed as more than 2000 nM.
With `C[C@H]1C(=O)C(C#N)C[C@@]2(C)c3nc(-c4ccnc5ccccc45)nc(-c4ccccc4F)c3CC[C@H]12` (some centres unmarked) [T186], the IC50 in assay [3] is 195 nM. Besides, the “HRF2 ARE 2×” value in assay [2] was more than 2000 nM.
